Reference: PubChem BioAssay (NCI)
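Test compounds were applied to cells in 96-well plates for 48 hours at 5 doses. GI50 = concentration required for 50% inhibition of growth. TGI: total growth inhibition.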

How the values were obtained:
Test in all cases: growth of human tumour cells (NCI), 48 h
NCI/ADR-RES ovarian = test system: NCI/ADR-RES ovarian
NCI-H460 lung = test system: NCI-H460 lung
MOLT-4 leukemia = test system: MOLT-4 leukemia
IGROV1 ovarian = test system: IGROV1 ovarian
A549 NSCLC = test system: A549 NSCLC
SK-MEL-5 melanoma = test system: SK-MEL-5 melanoma
T-47D breast = test system: T-47D breast
CAKI-1 renal = test system: CAKI-1 renal
OVCAR-8 ovarian = test system: OVCAR-8 ovarian
UACC-257 melanoma = test system: UACC-257 melanoma
RXF 393 renal = test system: RXF 393 renal
SF-268 CNS = test system: SF-268 CNS
UACC-62 melanoma = test system: UACC-62 melanoma
PC-3 prostate = test system: PC-3 prostate
NCI-H23 lung = test system: NCI-H23 lung
786-0 renal = test system: 786-0 renal
UO-31 renal = test system: UO-31 renal
OVCAR-5 ovarian = test system: OVCAR-5 ovarian
MDA-MB-435 = test system: MDA-MB-435
BT-549 breast = test system: BT-549 breast
SK-MEL-28 melanoma = test system: SK-MEL-28 melanoma
HT29 colon = test system: HT29 colon
OVCAR-4 ovarian = test system: OVCAR-4 ovarian
HCT-15 colon = test system: HCT-15 colon
OVCAR-3 ovarian = test system: OVCAR-3 ovarian
K-562 leukemia = test system: K-562 leukemia
U251 CNS = test system: U251 CNS
HOP-92 NSCLC = test system: HOP-92 NSCLC
KM12 colon = test system: KM12 colon
HS 578T breast = test system: HS 578T breast
CCRF-CEM leukemia = test system: CCRF-CEM leukemia
SN12C renal = test system: SN12C renal
SNB-75 CNS = test system: SNB-75 CNS
A498 renal = test system: A498 renal
ACHN renal = test system: ACHN renal
RPMI-8226 leukemia = test system: RPMI-8226 leukemia
SNB-19 CNS = test system: SNB-19 CNS
MALME-3M melanoma = test system: MALME-3M melanoma
MCF7 breast = test system: MCF7 breast
SK-OV-3 ovarian = test system: SK-OV-3 ovarian
HOP-62 NSCLC = test system: HOP-62 NSCLC
HCT-116 colon = test system: HCT-116 colon
SW-620 colon = test system: SW-620 colon
DU-145 prostate = test system: DU-145 prostate
MDA-MB-231 breast = test system: MDA-MB-231 breast
NCI-H226 lung = test system: NCI-H226 lung
SF-539 CNS = test system: SF-539 CNS
NCI-H522 lung = test system: NCI-H522 lung
COLO 205 colon = test system: COLO 205 colon
SR leukemia = test system: SR leukemia
M14 melanoma = test system: M14 melanoma
LOX IMVI melanoma = test system: LOX IMVI melanoma
HCC-2998 colon = test system: HCC-2998 colon
TK-10 renal = test system: TK-10 renal
SK-MEL-2 melanoma = test system: SK-MEL-2 melanoma

Compound: COc1ccc(/C=C2/CN(C(=O)c3ccccc3F)C/C(=C\c3ccc(OC)cc3)C2=O)cc1
- GI50 (NCI/ADR-RES ovarian): 3.49 µM
- TGI (NCI/ADR-RES ovarian): 82.5 µM
- GI50 (NCI-H460 lung): 8.81 µM
- TGI (NCI-H460 lung): 30.8 µM
- GI50 (MOLT-4 leukemia): 3.79 µM
- TGI (MOLT-4 leukemia): 49.5 µM
- GI50 (IGROV1 ovarian): 3.43 µM
- TGI (IGROV1 ovarian): 11.3 µM
- GI50 (A549 NSCLC): 4.83 µM
- TGI (A549 NSCLC): 34.3 µM
- GI50 (SK-MEL-5 melanoma): 1880 nM
- TGI (SK-MEL-5 melanoma): 4.14 µM
- GI50 (T-47D breast): 5.65 µM
- TGI (T-47D breast): 76.2 µM
- GI50 (CAKI-1 renal): 4.87 µM
- TGI (CAKI-1 renal): > 100 µM
- GI50 (OVCAR-8 ovarian): 3.4 µM
- TGI (OVCAR-8 ovarian): 85.1 µM
- GI50 (UACC-257 melanoma): 3.24 µM
- TGI (UACC-257 melanoma): 13.3 µM
- GI50 (RXF 393 renal): 1850 nM
- TGI (RXF 393 renal): 3.68 µM
- GI50 (SF-268 CNS): 4.28 µM
- TGI (SF-268 CNS): 18.9 µM
- GI50 (UACC-62 melanoma): 2530 nM
- TGI (UACC-62 melanoma): 11.5 µM
- GI50 (PC-3 prostate): 2570 nM
- TGI (PC-3 prostate): 8.87 µM
- GI50 (NCI-H23 lung): 5.03 µM
- TGI (NCI-H23 lung): 24.3 µM
- GI50 (786-0 renal): 2040 nM
- TGI (786-0 renal): 4.37 µM
- GI50 (UO-31 renal): 1900 nM
- TGI (UO-31 renal): 6.69 µM
- GI50 (OVCAR-5 ovarian): 7.55 µM
- TGI (OVCAR-5 ovarian): 28.8 µM
- GI50 (MDA-MB-435): 2480 nM
- TGI (MDA-MB-435): 9.93 µM
- GI50 (BT-549 breast): 2050 nM
- TGI (BT-549 breast): 4.32 µM
- GI50 (SK-MEL-28 melanoma): 2720 nM
- TGI (SK-MEL-28 melanoma): 7.93 µM
- GI50 (HT29 colon): 1960 nM
- TGI (HT29 colon): 3.78 µM
- GI50 (OVCAR-4 ovarian): 6.02 µM
- TGI (OVCAR-4 ovarian): > 100 µM
- GI50 (HCT-15 colon): 2050 nM
- TGI (HCT-15 colon): 6.62 µM
- GI50 (OVCAR-3 ovarian): 2300 nM
- TGI (OVCAR-3 ovarian): 4.95 µM
- GI50 (K-562 leukemia): 3.49 µM
- TGI (K-562 leukemia): > 100 µM
- GI50 (U251 CNS): 2180 nM
- TGI (U251 CNS): 5.14 µM
- GI50 (HOP-92 NSCLC): 10.3 µM
- TGI (HOP-92 NSCLC): 39.6 µM
- GI50 (KM12 colon): 1910 nM
- TGI (KM12 colon): 3.59 µM
- GI50 (HS 578T breast): 2540 nM
- TGI (HS 578T breast): 8.31 µM
- GI50 (CCRF-CEM leukemia): 2760 nM
- TGI (CCRF-CEM leukemia): > 100 µM
- GI50 (SN12C renal): 2780 nM
- TGI (SN12C renal): 10.9 µM
- GI50 (SNB-75 CNS): 11.4 µM
- TGI (SNB-75 CNS): 39.8 µM
- GI50 (A498 renal): 13.5 µM
- TGI (A498 renal): 27.1 µM
- GI50 (ACHN renal): 2950 nM
- TGI (ACHN renal): 9.46 µM
- GI50 (RPMI-8226 leukemia): 242 nM
- TGI (RPMI-8226 leukemia): 714 nM
- GI50 (SNB-19 CNS): 6.21 µM
- TGI (SNB-19 CNS): 20.7 µM
- GI50 (MALME-3M melanoma): 5.83 µM
- TGI (MALME-3M melanoma): 21.3 µM
- GI50 (MCF7 breast): 543 nM
- TGI (MCF7 breast): 3.56 µM
- GI50 (SK-OV-3 ovarian): 4.58 µM
- TGI (SK-OV-3 ovarian): 18.3 µM
- GI50 (HOP-62 NSCLC): 3.77 µM
- TGI (HOP-62 NSCLC): 14.6 µM
- GI50 (HCT-116 colon): 392 nM
- TGI (HCT-116 colon): 1390 nM
- GI50 (SW-620 colon): 1860 nM
- TGI (SW-620 colon): 3.84 µM
- GI50 (DU-145 prostate): 7.47 µM
- TGI (DU-145 prostate): 23.9 µM
- GI50 (MDA-MB-231 breast): 2880 nM
- TGI (MDA-MB-231 breast): 9.04 µM
- GI50 (NCI-H226 lung): 29.5 µM
- TGI (NCI-H226 lung): > 100 µM
- GI50 (SF-539 CNS): 3.65 µM
- TGI (SF-539 CNS): 14.6 µM
- GI50 (NCI-H522 lung): 4.2 µM
- TGI (NCI-H522 lung): 15 µM
- GI50 (COLO 205 colon): 3.82 µM
- TGI (COLO 205 colon): 12.3 µM
- GI50 (SR leukemia): 884 nM
- TGI (SR leukemia): 6.33 µM
- GI50 (M14 melanoma): 2730 nM
- TGI (M14 melanoma): 7.51 µM
- GI50 (LOX IMVI melanoma): 1660 nM
- TGI (LOX IMVI melanoma): 3.24 µM
- GI50 (HCC-2998 colon): 1910 nM
- TGI (HCC-2998 colon): 3.48 µM
- GI50 (TK-10 renal): 4.95 µM
- TGI (TK-10 renal): 17.7 µM
- GI50 (SK-MEL-2 melanoma): 15.3 µM
- TGI (SK-MEL-2 melanoma): 35.8 µM
